Experimental data reported in US10208047B2, “Tertiary alcohol imidazopyrazine BTK inhibitors” (Merck Sharp & Dohme Corp., priority 2014, dated 2019).

biological target: BTK enzyme (recombinant full-length BTK, hBTK) (Homo sapiens (Human), UniProt Q06187); assay: Btk enzyme activity assay, LANCE TR-FRET; type: biochemical; details: 50 pM hBTK, 2 μM biotin-A5-peptide, 25 μM ATP, 60 minute compound & enzyme incubation, compound range 1 μM to 0.017 nM, read-out: BTK binding IC50
Procedure: Btk Enzyme Activity Assay Methods
BTK enzymatic activity was determined with the LANCE (Lanthanide Chelate Excite) TR-FRET (Time-resolved fluorescence resonance energy transfer) assay. In this assay, the potency (IC50) of each compound was determined from an eleven point (1:3 serial dilution; final compound concentration range in assay from 1 μM to 0.017 nM) titration curve using the following outlined procedure. To each well of a black non-binding surface Corning 384-well microplate (Corning Catalog #3820), 5 nL of compound (2000 fold dilution in final assay volume of 10 μL) was dispensed, followed by the addition of 7.5 μL of 1× kinase buffer (50 mM Hepes 7.5, 10 mM MgCl2, 0.01% Brij-35, 1 mM EGTA, 0.05% BSA & 1 mM DTT) containing 5.09 pg/μL (66.67 pM) of BTK enzyme (recombinant protein from baculovirus-transfected Sf9 cells: full-length BTK, 6HIS-tag cleaved). Following a 60 minute compound & enzyme incubation, each reaction was initiated by the addition of 2.5 μL 1× kinase buffer containing 8 μM biotinylated “A5” peptide (Biotin-EQEDEPEGDYFEWLE-NH2) (SEQ.ID.NO.: 1), and 100 μM ATP. The final reaction in each well of 10 μL consists of 50 pM hBTK, 2 μM biotin-A5-peptide, and 25 μM ATP. Phosphorylation reactions were allowed to proceed for 120 minutes. Reactions were immediately quenched by the addition of 20 uL of 1× quench buffer (15 mM EDTA, 25 mM Hepes 7.3, and 0.1% Triton X-100) containing detection reagents (0.626 nM of LANCE-Eu-W1024-anti-phosphoTyrosine antibody, PerkinElmer and 86.8 nM of Streptavidin-conjugated Dylight 650, Dyomics/ThermoFisher Scientific). After 60 minutes incubation with detection reagents, reaction plates were read on a PerkinElmer EnVision plate reader using standard TR-FRET protocol. Briefly, excitation of donor molecules (Eu-chelate:anti-phospho-antibody) with a laser light source at 337 nm produces energy that can be transferred to Dylight-650 acceptor molecules if this donor:acceptor pair is within close proximity. Fluorescence intensity at both 665 nm (acceptor) and 615 nm (donor) are measured and a TR-FRET ratio calculated for each well (acceptor intensity/donor intensity). IC50 values were determined by 4 parameter robust fit of TR-FRET ratio values vs. (Log10) compound concentrations.

Chain of BTK enzyme (recombinant full-length BTK, hBTK) (Q06187 whole entry): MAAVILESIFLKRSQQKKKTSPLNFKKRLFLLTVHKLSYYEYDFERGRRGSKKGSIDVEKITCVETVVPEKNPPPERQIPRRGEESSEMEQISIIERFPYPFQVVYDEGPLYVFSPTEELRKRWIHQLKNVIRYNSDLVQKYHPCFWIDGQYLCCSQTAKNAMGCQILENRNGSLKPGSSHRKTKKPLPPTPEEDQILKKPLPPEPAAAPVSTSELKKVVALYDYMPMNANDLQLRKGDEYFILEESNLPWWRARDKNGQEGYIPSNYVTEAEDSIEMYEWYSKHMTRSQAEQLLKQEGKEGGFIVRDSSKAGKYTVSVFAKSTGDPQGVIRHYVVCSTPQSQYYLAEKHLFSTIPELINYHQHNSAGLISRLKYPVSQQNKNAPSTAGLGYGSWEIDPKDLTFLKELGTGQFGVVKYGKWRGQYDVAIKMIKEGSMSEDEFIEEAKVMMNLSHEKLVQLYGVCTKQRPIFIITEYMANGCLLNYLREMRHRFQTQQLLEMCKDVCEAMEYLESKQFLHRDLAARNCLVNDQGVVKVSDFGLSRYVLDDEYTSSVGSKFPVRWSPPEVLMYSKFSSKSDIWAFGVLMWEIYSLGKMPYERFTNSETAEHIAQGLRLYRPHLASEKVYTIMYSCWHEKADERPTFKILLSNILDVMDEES

Compared with CC(C)[C@]1(C(=O)O)CC[C@H](c2nc(-c3ccc([C@@](C)(O)c4cccc(C(F)F)c4)cc3)c3c(N)ncc(Cl)n23)C1 [Example 31, (1S,3S)-3-[8-amino-5-chloro-1-(4-{(1R)-1-[3-(difluoromethyl)phenyl]-1-hydroxyethyl}phenyl)imidazo[1,5-a]pyrazin-3-yl]-1-(1-methylethyl)cyclopentanecarboxylic acid], CC(C)[C@@]1(C(=O)O)CC[C@H](c2nc(-c3ccc([C@@](C)(O)c4cccc(C(F)F)c4)cc3)c3c(N)ncc(Cl)n23)C1 [Example 30, (1R,3S)-3-[8-amino-5-chloro-1-(4-{(1R)-1-[3-(difluoromethyl)phenyl]-1-hydroxyethyl}phenyl)imidazo[1,5-a]pyrazin-3-yl]-1-(1-methylethyl)cyclopentanecarboxylic acid] is 4.1-fold lower in IC50: 133 nM for the first, 32.3 nM for the second.

Compared with CC(C)[C@]1(C(=O)O)CCC[C@@H](c2nc(-c3ccc([C@](C)(O)c4cccc(C(F)(F)F)c4)cc3)c3c(N)nccn23)C1 [Example 14, (1S,3R)-3-[8-amino-1-(4-{(1S)-1-hydroxy-1-[3-(trifluoromethyl)phenyl]ethyl}phenyl)imidazo[1,5-a]pyrazin-3-yl]-1-(1-methylethyl)cyclohexanecarboxylic acid], CC(C)[C@@]1(C(=O)O)CCC[C@H](c2nc(-c3ccc([C@](C)(O)c4cccc(C(F)(F)F)c4)cc3)c3c(N)nccn23)C1 [Example 15, (1R,3S)-3-[8-amino-1-(4-{(1S)-1-hydroxy-1-[3-(trifluoromethyl)phenyl]ethyl}phenyl)imidazo[1,5-a]pyrazin-3-yl]-1-(1-methylethyl)cyclohexanecarboxylic acid] is 9.6-fold lower in IC50: 1000 nM for the first, 104 nM for the second.

Compared with C[C@@](O)(c1ccc(-c2nc(C34CCC(C(=O)O)(CC3(F)F)C(F)(F)C4)n3ccnc(N)c23)cc1)c1cccc(C(F)(F)F)c1 (stereo partly drawn) [Example 12, 4-[8-amino-1-(4-{(1R)-1-hydroxy-1-[3-(trifluoromethyl)phenyl]ethyl}phenyl)imidazo[1,5-a]pyrazin-3-yl]-2,2,5,5-tetrafluorobicyclo[2.2.2]octane-1-carboxylic acid], C[C@@](O)(c1ccc(-c2nc(C3(C(=O)O)CC3)n3ccnc(N)c23)cc1)c1cccc(C(F)(F)F)c1 [Example 7, 1-[8-amino-1-(4-{(1R)-1-hydroxy-1-[3-(trifluoromethyl)phenyl]ethyl}phenyl)imidazo[1,5-a]pyrazin-3-yl]cyclopropanecarboxylic acid] is 35-fold higher in IC50: 17.3 nM for the first, 614 nM for the second. The first is the more potent here.

Going from C[C@@]1(C(=O)O)CC[C@](C)(c2nc(-c3ccc([C@@](C)(O)c4cccc(C(F)(F)F)c4)cc3)c3c(N)nccn23)C1 [Example 17, (1R,3S)-3-[8-amino-1-(4-{(1R)-1-hydroxy-1-[3-(trifluoromethyl)phenyl]ethyl}phenyl)imidazo[1,5-a]pyrazin-3-yl]-1,3-dimethylcyclopentanecarboxylic acid] to CC1(C)[C@H](c2nc(-c3ccc([C@@](C)(O)c4cccc(C(F)(F)F)c4)cc3)c3c(N)nccn23)CC[C@]1(C)C(=O)O [Example 11, (1S,3R)-3-[8-amino-1-(4-{(1R)-1-hydroxy-1-[3-(trifluoromethyl)phenyl]ethyl}phenyl)imidazo[1,5-a]pyrazin-3-yl]-1,2,2-trimethylcyclopentanecarboxylic acid], the IC50 falls from 55.1 nM to 5 nM (11-fold).

C[C@@](O)(c1ccc(-c2nc(C34CCC(C(=O)O)(CC3)C3CC34)n3ccnc(N)c23)cc1)c1cccc(C(F)(F)F)c1 (stereo partly drawn) [Example 22, 5-[8-amino-1-(4-{(1R)-1-hydroxy-1-[3-(trifluoromethyl)phenyl]ethyl}phenyl)imidazo[1,5-a]pyrazin-3-yl]tricyclo[3.2.2.0~2,4~]nonane-1-carboxylic acid] and C[C@](O)(c1ccc(-c2nc(C34CCC(C(=O)O)(CC3)CC4)n3ccnc(N)c23)cc1)c1cccc(C(F)(F)F)c1 [Example 2, 4-[8-amino-1-(4-{(1S)-1-hydroxy-1-[3-(trifluoromethyl)phenyl]ethyl}phenyl)imidazo[1,5-a]pyrazin-3-yl]bicyclo[2.2.2]octane-1-carboxylic acid] are within 1.5-fold of each other in IC50: 6.2 nM for the first, 5.8 nM for the second.

First: C[C@@](O)(c1ccc(-c2nc([C@@H]3C[C@H]4CC[C@@H](C3)[C@H]4C(=O)O)n3ccnc(N)c23)cc1)c1cccc(C(F)(F)F)c1 [Example 26, (3-exo,8-syn)-3-[8-amino-1-(4-{(1R)-1-hydroxy-1-[3-(trifluoromethyl)phenyl]ethyl}phenyl)imidazo[1,5-a]pyrazin-3-yl]bicyclo[3.2.1]octane-8-carboxylic acid]
Second: CC(C)[C@H]1CC[C@@H](c2nc(-c3ccc([C@@](C)(O)c4cccc(C(F)(F)F)c4)cc3)c3c(N)nccn23)C[C@H]1C(=O)O [Example 21, (1R,2R,5R)-5-[8-amino-1-(4-{(1R)-1-hydroxy-1-[3-(trifluoromethyl)phenyl]ethyl}phenyl)imidazo[1,5-a]pyrazin-3-yl]-2-(1-methylethyl)cyclohexanecarboxylic acid]
The IC50 of the first is 1.7-fold lower: 33.5 nM for the first, 56.1 nM for the second. The first is the more potent here.

Compared with C[C@@](O)(c1ccc(-c2nc(C34CCCC(C(=O)O)(CC3)CC4)n3ccnc(N)c23)cc1)c1cccc(C(F)(F)F)c1 [Example 9, 5-[8-amino-1-(4-{(1R)-1-hydroxy-1-[3-(trifluoromethyl)phenyl]ethyl}phenyl)imidazo[1,5-a]pyrazin-3-yl]bicyclo[3.2.2]nonane-1-carboxylic acid], CCOc1cc(C(C)(O)c2cccc(C)c2)ccc1-c1nc(C23CCC(C(=O)O)(CC2)CC3)n2ccnc(N)c12 (stereo not drawn) [Example 19, 4-(8-amino-1-{2-ethoxy-4-[1-hydroxy-1-(3-methylphenyl)ethyl]phenyl}imidazo[1,5-a]pyrazin-3-yl)bicyclo[2.2.2]octane-1-carboxylic acid] is 1.7-fold lower in IC50: 7 nM for the first, 4.1 nM for the second.

With CC1(C)[C@H](c2nc(-c3ccc([C@@](C)(O)c4cccc(C(F)F)c4)cc3)c3c(N)nccn23)CC[C@]1(C)C(=O)O [Example 27, (1S,3R)-3-[8-amino-1-(4-{(1R)-1-[3-(difluoromethyl)phenyl]-1-hydroxyethyl}phenyl)imidazo[1,5-a]pyrazin-3-yl]-1,2,2-trimethylcyclopentanecarboxylic acid] the IC50 was 0.78 nM.
